Earlier results in patent EP4488277A1, “NOVEL BISPIDINE-BASED METAL CHELATING LIGANDS DISPLAYING GOOD RELAXIVITY” (Université de Strasbourg, priority 2023, dated 2025).

Details: pH of 7.4, 60 MHz, 25°C

relaxivity r1: 3.7 mM⁻¹ s⁻¹
SMILES: CNC[C@H](O)[C@@H](O)[C@H](O)[C@H](O)CO.O=C([O-])CN1CCN(CC(=O)[O-])CCN(CC(=O)O)CCN(CC(=O)[O-])CC1.[Gd+3] [Dotarem®, gadoterate meglumine]
